Data as given in US20060252798A1, “Metal ion chelators and therapeutic use thereof” (priority 2003, published 2006).

Assay: Mouse weight loss and haematological indices in M109-bearing mice
Type: in vivo
Details: Mean ± SEM
Procedure: The tumour cells were passaged in CD2F1 mice by preparing a brei from the tumour and injecting it sc.^20 Dp44mT was dissolved in 30% (v/v) propylene glycol in saline and injected iv 4 days after tumour engraftment, twice daily for 5 days followed by a “rest period” of 2 days when the animal was not injected. On the twelfth day after tumour implantation, mice were sacrificed using methoxyfluorane and cardiac puncture performed. Blood counts and erythrocyte indices were measured using a Sysmex Blood Counter (Prince of Wales Hospital, Sydney, Australia). Mouse body weight changes during the treatment period were recorded. The tumours were weighed and fixed for histological examination. The experimental groups consisted of eight mice for the control and each treatment (Table 5).

## CN(C)C(=S)NN=C(c1ccccn1)c1ccccn1 [Dp44mT, di-2-pyridylketone 4,4-dimethyl-3-thiosemicarbazone]
Dp44mT 0.3 mg/kg
  Body weight loss: 1.3 ± 0.3 g
  Haematocrit: 0.40 ± 0.03
  Haemoglobin: 13.3 ± 0.5 g/dL
  Platelets: 1019 ± 87 10^9/L
  RBC: 8.9 ± 0.4 10^12/L
  WBC: 4.2 ± 0.4 10^9/L
Dp44mT 0.4 mg/kg
  Body weight loss: 1.1 ± 0.2 g
  Haematocrit: 0.40 ± 0.01
  Haemoglobin: 11.8 ± 0.8 g/dL
  Platelets: 636 ± 88 10^9/L
  RBC: 8.0 ± 0.6 10^12/L
  WBC: 3.9 ± 0.6 10^9/L
